For 22 compounds, minimal effective concentration and melting point results are on record in US8969362B2 (priority 2004, dated 2015).

The first data set concerns rat spleen cells. The data set is described as follows: cells. The format is cell-based. Conditions: 24 h, read-out: Minimum effective concentration (interferon inducing activity).
For `CCCCOc1nc(N)c2[nH]c(=O)n(CCCCNC(=O)Nc3cccc(CC(=O)OC)c3)c2n1` [Example 11, 2-butoxy-8-oxo-9-[4-(3-methoxycarbonylmethylphenylaminocarbonylamino)butyl]adenine], the minimal effective concentration is 0.01 µM.
As for `CCCCOc1nc(N)c2[nH]c(=O)n(CCCCNS(=O)(=O)c3cccc(C(=O)O)c3)c2n1` [Comparison Example 8, 2-butoxy-8-oxo-9-[4-(3-hydroxycarbonylbenzenesulfonamide)butyl]adenine, reference compound], the minimal effective concentration turned out to be 0.1 µM.

Tested on in another data set: not given
Test: not given
Settings: not given
As a reminder, the melting point is the temperature, or range, at which the solid turns liquid. Turning to `CCCCOc1nc(N)c2[nH]c(=O)n(CCNc3cccc(CC(=O)OC)c3)c2n1` [Example 2-41, Methyl (3-{[2-(6-amino-2-butoxy-8-oxo-7,8-dihydro-9H-purin-9-yl)ethyl]amino}phenyl)acetate], the melting point lay within 222 to 223 °C.
The same measure, in the same setting: under `CCCCOc1nc(N)c2[nH]c(=O)n(CCCCN(CCCN3CCCC3=O)Cc3cccc(CC(=O)OC)c3)c2n1` [Example 2-33, Methyl [3-({[4-(6-amino-2-butoxy-8-oxo-7,8-dihydro-9H-purin-9-yl)butyl][3-(2-oxopyrrolidin-1-yl)propyl]amino}methyl)phenyl]acetate] stands 115 to 116 °C; under `CCCCOc1nc(N)c2[nH]c(=O)n(CCCNCc3cccc(C(=O)OC)c3)c2n1` [Example 2-3, Methyl 3-({[3-(6-amino-2-butoxy-8-oxo-7,8-dihydro-9H-purin-9-yl)propyl]amino}methyl)benzoate], 214 to 218 °C.
The same measure, in the same setting: as for `CCCCOc1nc(N)c2[nH]c(=O)n(CCN(C)Cc3cccc(CC(=O)O)c3)c2n1` [Example 2-50, (3-{[[2-(6-Amino-2-butoxy-8-oxo-7,8-dihydro-9H-purin-9-yl)ethyl](methyl)amino]methyl}phenyl)acetic acid], the figure is 164 to 166 °C; as for `CCCCOc1nc(N)c2[nH]c(=O)n(CCCCNS(=O)(=O)c3ccc(CCC(=O)O)cc3)c2n1` [Example 2-12, 3-[4-({[4-(6-Amino-2-butoxy-8-oxo-7,8-dihydro-9H-purin-9-yl)butyl]amino}sulfonyl)phenyl]propionic acid], 210 to 211 °C; as for `CCCCOc1nc(N)c2[nH]c(=O)n(CCCCN(CC(C)(C)O)S(=O)(=O)c3cccc(CC(=O)OC)c3)c2n1` [Example 2-22, Methyl (3-{[[4-(6-amino-2-butoxy-8-oxo-7,8-dihydro-9H-purin-9-yl)butyl](2-hydroxy-2-methylpropyl)amino]sulfonyl}phenyl)acetate], 192 to 193 °C.
On the same count and under the same terms, under `CCCCOc1nc(N)c2[nH]c(=O)n(CCCCN(C)S(=O)(=O)c3cccc(CC(=O)O)c3)c2n1` [Example 2-18, (3-{[[4-(6-Amino-2-butoxy-8-oxo-7,8-dihydro-9H-purin-9-yl)butyl](methyl)amino]sulfonyl}phenyl)acetic acid] stands 171 to 172 °C.
As to `CCCCOc1nc(N)c2[nH]c(=O)n(CCCNc3cccc(CC(=O)OC)c3)c2n1` [Example 2-42, Methyl (3-{[3-(6-amino-2-butoxy-8-oxo-7,8-dihydro-9H-purin-9-yl)propyl]amino}phenyl)acetate], the melting point is 208 to 209 °C.
`CCCCOc1nc(N)c2[nH]c(=O)n(CCCNS(=O)(=O)c3cccc(CC(=O)OC)c3)c2n1` [Example 2-21, Methyl [3-({[3-(6-amino-2-butoxy-8-oxo-7,8-dihydro-9H-purin-9-yl)propyl]amino}sulfonyl)phenyl]acetate] showed a melting point of 218 to 219 °C.
The same measure, in the same setting: under `CCCCOc1nc(N)c2[nH]c(=O)n(CCCCNS(=O)(=O)c3ccc(CCC(=O)OC)cc3)c2n1` [Example 2-11, Methyl 3-[4-({[4-(6-amino-2-butoxy-8-oxo-7,8-dihydro-9H-purin-9-yl)butyl]amino}sulfonyl)phenyl]propanoate] stands 150 to 152 °C.
On the same count and under the same terms, as for `CCCCOc1nc(N)c2[nH]c(=O)n(CCS(=O)(=O)c3cccc(CC(=O)OC)c3)c2n1` [Example 2-48, Methyl (3-{[2-(6-amino-2-butoxy-8-oxo-7,8-dihydro-9H-purin-9-yl)ethyl]sulfonyl}phenyl)acetate], the figure is 246 to 247 °C; as for `CCCCOc1nc(N)c2[nH]c(=O)n(CCSc3cccc(CC(=O)OC)c3)c2n1` [Example 2-39, Methyl (3-{[2-(6-amino-2-butoxy-8-oxo-7,8-dihydro-9H-purin-9-yl)ethyl]thio}phenyl)acetate], 232 to 233 °C.
On the same count and under the same terms, as for `CCCCOc1nc(N)c2[nH]c(=O)n(CCSc3cccc(CC(=O)O)c3)c2n1` [Example 2-40, (3-{[2-(6-Amino-2-butoxy-8-oxo-7,8-dihydro-9H-purin-9-yl)ethyl]thio}phenyl)acetic acid], the figure is 205 to 207 °C; as for `CCCCOc1nc(N)c2[nH]c(=O)n(CCCCN(CC(C)(C)CN(C)C)S(=O)(=O)c3cccc(CC(=O)O)c3)c2n1` [Example 2-20, [3-({[4-(6-Amino-2-butoxy-8-oxo-7,8-dihydro-9H-purin-9-yl)butyl][3-(dimethylamino)-2,2-dimethylpropyl]amino}sulfonyl)phenyl]acetic acid], 175 to 176 °C; as for `CCCCOc1nc(N)c2[nH]c(=O)n(CCCCN(CCN3CCCC3)S(=O)(=O)c3cccc(CC(=O)O)c3)c2n1` [Example 2-14, (3-{[[4-(6-Amino-2-butoxy-8-oxo-7,8-dihydro-9H-purin-9-yl)butyl](2-pyrrolidin-1-ylethyl)amino]sulfonyl}phenyl)acetic acid], 192 to 193 °C.
With `CCCCOc1nc(N)c2[nH]c(=O)n(CCCCN(Cc3cccc(CC(=O)O)c3)CC(C)(C)CN(C)C)c2n1` [Example 2-32, [3-({[4-(6-Amino-2-butoxy-8-oxo-7,8-dihydro-9H-purin-9-yl)butyl][3-(dimethylamino)-2,2-dimethylpropyl]amino}methyl)phenyl]acetic acid], the melting point was 189 to 190 °C.
On the same count and under the same terms, under `CCCCOc1nc(N)c2[nH]c(=O)n(CCCCN(CCOC)S(=O)(=O)c3cccc(CC(=O)O)c3)c2n1` [Example 2-16, (3-{[[4-(6-Amino-2-butoxy-8-oxo-7,8-dihydro-9H-purin-9-yl)butyl](2-methoxyethyl)amino]sulfonyl}phenyl)acetic acid] stands 171 to 172 °C; under `CCCCOc1nc(N)c2[nH]c(=O)n(CCCCN(CCN3CCOCC3)Cc3cccc(CC(=O)OC)c3)c2n1` [Example 2-35, Methyl (3-{[[4-(6-amino-2-butoxy-8-oxo-7,8-dihydro-9H-purin-9-yl)butyl](2-morpholin-4-ylethyl)amino]methyl}phenyl)acetate], 189 to 190 °C; under `CCCCOc1nc(N)c2[nH]c(=O)n(CCCNc3cccc(CC(=O)O)c3)c2n1` [Example 2-43, (3-{[3-(6-Amino-2-butoxy-8-oxo-7,8-dihydro-9H-purin-9-yl)propyl]amino}phenyl)acetic acid], 247 °C.
On the same count and under the same terms, as for `CCCCOc1nc(N)c2[nH]c(=O)n(CCCCN(CCOC)S(=O)(=O)c3cccc(CC(=O)OC)c3)c2n1` [Example 2-15, Methyl (3-{[[4-(6-amino-2-butoxy-8-oxo-7,8-dihydro-9H-purin-9-yl)butyl](2-methoxyethyl)amino]sulfonyl}phenyl)acetate], the figure is 182 to 183 °C.
